Results published in patent publication US5618831A, “Composition and method for treating cancer” (Fuji Photo Film Co., Ltd., priority 1992, dated 1997).

Experiments:
[1] = tested on: human colon carcinoma cell line CX-1; assay: colony formation, human colon carcinoma cell line CX-1 (24 h exposure, 7-10 days incubation); format: cell-based; conditions: Table I; for Selectivity: ratio of IC50 for CV-1 and IC50 for CX-1; for IC50: Homo sapiens, CX-1 cells, 24 h treatment, colony number reduced to 50% of control
Description: (§1) CX-1 cells (2,000 cells/well) and CV-1 cells (1,000 cells/well) were plated in 24-well plastic culture plates. […] The control received culture media only. Cells were treated with compounds of General Formulas (I) to (III) at 37° C. for 24 hours. After rinsing with fresh culture medium three times, the cells were further incubated at 37° C. for 7 to 10 days. Cell colonies were fixed and stained with 2% crystal violet in 70% ethanol for 10 minutes and rinsed in water. […] The selectivity is defined as the ratio of IC50 for CV-1 and IC50 for CX-1.

[2] = absorption spectrum of methanol solutions; format: physicochemical; conditions: for ε (molar absorptivity): at λmax; for λmax (MeOH): maximum absorption wavelength
Description: Absorption spectrum of methanol solutions of the compounds used in the present invention was determined.

[3] = tested on: KB cell; assay: colony formation, KB cell (protocol of Example 1); conditions: for IC50: Homo sapiens, KB, read-out: KB Cell (IC50); for Selectivity: Table II, ratio of IC50 for CV-1 and IC50 for KB cell
Description: as §1

[4] = tested on: normal monkey kidney epithelial cell line CV-1; assay: colony formation, normal monkey kidney epithelial cell line CV-1 (24 h exposure, 7-10 days incubation); format: cell-based; conditions: Primates, CV-1 cells
Description: as §1

[5] = tested on: LOX, a human melanoma cell line; assay: nude mice bearing human melanoma (LOX, i.p.), survival; format: in vivo, human (LOX) in male athymic Swiss nu/nu mouse; conditions: mean survival treated / untreated control
Description: Nude Mice Bearing Human Melanoma as a Model System
LOX, a human melanoma cell line, grown subcutaneously in nude mice was excised, trypsinized to yield a single cell suspension using a metal grid with a […]. Red blood cells were lysed by incubation with 0.17 molar ammonium chloride at 4° C. for 20 minutes. Five million viable trypan blue negative cells made up in 0.1 ml of Dulbecco modified Eagles' medium (DME) were injected into the peritoneal cavity of a male athymic Swiss nu/nu mouse. The control group and each treatment group consisted of 5 to 10 mice. Treatment was commenced the following day by intraperitoneal injection.
Ten control mice received 0.25 ml of 2% dextrose on those days the treated groups were injected with the compounds of this invention. The compounds used in this invention which were tested are listed in Table III below and the results obtained are also shown in Table III. T/C is the ratio, expressed as a percentage of the mean survival age of the treated group to the mean survival age of the untreated control group.

[6] = tested on: normal nude mice; assay: toxicity to normal nude mice
[7] = Table I, 24 h treatment, colony number reduced to 50% of control
[8] = Table II, protocol of Example 1

Which Selectivity [1] does the source give for `CCN1C(=CC(C)=Cc2sc3c4ccccc4ccc3[n+]2CC)Sc2c1ccc1ccccc21` [G, reference compound] here?
Its Selectivity is 5.

Which results are given for `CCN1C(=O)C(=CC=C2C=Cc3ccccc3N2CC)SC1=Nc1ccc2ccccc2[n+]1C` [II-9]?
ε (molar absorptivity) [2]: 5.80 × 10^4; λmax (MeOH) [2]: 582 nm; IC50 [3]: 0.15 µg/mL; Selectivity [3]: 200

Which results are given for `CCN1C(=O)C(=C2Sc3ccccc3N2C)SC1=Nc1sc2ccccc2[n+]1CC` [Compound I-9]?
ε (molar absorptivity) [2]: 4.87 × 10^4; λmax (MeOH) [2]: 460 nm

Which “ε (molar absorptivity)” value [2] does the source give for `CCN1CCSC1=CC=C1SC(=Nc2sc3ccccc3[n+]2CC)N(CC)C1=O` [II-2] here?
Its value is 5.78 × 10^4.

What about the “λmax (MeOH)” value [2] of the same compound?
The value was 520 nm.

For `CCN1C(=O)C(=C2Sc3ccccc3N2C)SC1=Nc1sc2cc(Cl)ccc2[n+]1CC` [Compound I-17], which “ε (molar absorptivity)” value [2] is on record?
The value was 4.17 × 10^4.

And the “λmax (MeOH)” value [2]?
Its value is 462 nm.

For `CCn1c(=Cc2sc3ccccc3[n+]2CC)sc(=C2Sc3ccccc3N2C)c1=O` [Compound S-1, reference compound], which “ε (molar absorptivity)” value [2] is on record?
The value was 7.49 × 10^4.

What about the “λmax (MeOH)” value [2] of the same compound?
The value was 500 nm.

For `CCN1C(C)=CSC1=CC=C1SC(=Nc2sc3cc(OC)ccc3[n+]2CC)N(CC)C1=O` [Compound II-3], which “ε (molar absorptivity)” value [2] is on record?
Its value is 8.31 × 10^4.

And the “λmax (MeOH)” value [2]?
Its value is 570 nm.

Which “ε (molar absorptivity)” value [2] does the source give for `CCn1c(=Cc2sc3ccccc3[n+]2CC)sc(=CC=C2Sc3ccccc3N2C)c1=O` [Compound S-2, reference compound] here?
The value was 9.44 × 10^4.

What about the “λmax (MeOH)” value [2] of the same compound?
The value was 593 nm.

Which results are given for `CCN1C(=O)C(=C2Sc3ccc(C)cc3N2C)SC1=Nc1sc2ccccc2[n+]1CC` [Compound I-19]?
IC50 [4, 7]: 6 µg/mL; IC50 [1]: 0.05 µg/mL; Selectivity [1]: 120

With `CCN1C(=O)C(=C2Sc3ccc4ccccc4c3N2C)SC1=Nc1scc[n+]1C` [Compound I-47] as the compound, how does the “T/C (%)” value ([5]; 10 mg/kg i.p. on day 1, 3, 5) read?
Its value is 207%.

What about the IC50 [3] of the same compound?
The IC50 was 0.037 µg/mL.

What about the Selectivity [3] of the same compound?
The Selectivity was 686.

And the IC50 [4, 8]?
The IC50 was 25.4 µg/mL.

Which IC50 [3] does the source give for `CN1C(=O)C(=CC=C2Sc3ccccc3N2C)SC1=Nc1scc[n+]1C` [II-24] here?
Its IC50 is 0.078 µg/mL.

And the Selectivity [3]?
The Selectivity was 336.

What about the IC50 [4, 8] of the same compound?
The IC50 was 26.2 µg/mL.

What does the source list for `CCN1C(=O)C(=C2Sc3ccccc3N2C)SC1=Nc1cccc[n+]1CC` [Compound I-7]?
ε (molar absorptivity) [2]: 3.37 × 10^4; λmax (MeOH) [2]: 435 nm

For `CCN1C(=CC=c2sc(=Cc3sc4c([n+]3CC)CCCC4)n(CC)c2=O)Oc2ccccc21` [Compound C, reference compound], which Selectivity [1] is on record?
The Selectivity was 50.

What about the “toxicity to normal nude mice” value [6] of the same compound?
Its value is “less toxic to normal nude mice”.

With `CCN1C(=O)C(=C2Sc3ccccc3N2C)SC1=Nc1scc[n+]1CC` [Compound I-46] as the compound, how does the “T/C (%)” value ([5]; 10 mg/kg i.p. on day 1, 3, 4, 5, 6, 8) read?
Its value is 175%.

What about the IC50 [3] of the same compound?
Its IC50 is 0.083 µg/mL.

What about the Selectivity [3] of the same compound?
The Selectivity was 330.

And the IC50 [4, 8]?
The IC50 was 27.4 µg/mL.

For `CCN1C(=O)C(=C2C=CN(C)c3ccccc32)SC1=Nc1scc[n+]1CC` [Compound I-54], which “T/C (%)” value ([5]; 6 mg/kg i.p. on day 1, 3, 4, 5, 6, 8) is on record?
The value was 169%.

And the IC50 [3]?
The IC50 was 0.27 µg/mL.

And the Selectivity [3]?
Its Selectivity is 111.

Which “ε (molar absorptivity)” value [2] does the source give for `CCN1C(=O)C(=C2Sc3ccccc3N2C)SC1=Nc1cccc[n+]1CC` [Compound I-6, 1-ethyl-2-{[3-ethyl-5-(3-methylbenzothiazolin-2-ylidene)]-4-oxothiazolin-2-ylideneamino} pyridinium iodide] here?
The value was 3.52 × 10^4.

What about the “λmax (MeOH)” value [2] of the same compound?
The value was 434 nm.

What does the source list for `CCN1C(=O)C(=C2Sc3c(ccc4ccccc34)N2C)SC1=Nc1cccc[n+]1CC` [Compound I-25]?
IC50 [3]: 0.17 µg/mL; Selectivity [3]: 176; IC50 [4, 7]: 10 µg/mL; IC50 [1]: 0.1 µg/mL; Selectivity [1]: 100

Which Selectivity [1] does the source give for `CCN1C(=CC=CC=Cc2sc3ccccc3[n+]2CC)Oc2ccccc21` [F, reference compound] here?
The Selectivity was 50.

What does the source list for `CCN1C(=O)C(=C2C=Cc3ccccc3N2C)SC1=Nc1cccc[n+]1CC` [Compound I-33]?
IC50 [3]: 0.39 µg/mL; Selectivity [3]: 77

Which Selectivity [1] does the source give for `CCN1C(=CC=C(Cl)C=Cc2sc3ccc4ccccc4c3[n+]2CC)Sc2ccc3ccccc3c21` [H, reference compound] here?
The Selectivity was 2.5.

For `CCN1C(=O)C(=C2Sc3ccccc3N2C)SC1=Nc1sc2cc(OC)ccc2[n+]1CC` [Compound I-18], which “ε (molar absorptivity)” value [2] is on record?
Its value is 4.74 × 10^4.

What about the “λmax (MeOH)” value [2] of the same compound?
The value was 466 nm.

What about the IC50 [3] of the same compound?
The IC50 was 0.15 µg/mL.

What about the Selectivity [3] of the same compound?
The Selectivity was 177.

And the IC50 [4, 8]?
Its IC50 is 26.5 µg/mL.

Which Selectivity [1] does the source give for `CCN1C(=CC=Cc2sc3c4ccccc4ccc3[n+]2CC)Sc2c1ccc1ccccc21` [B, reference compound] here?
Its Selectivity is less than 2.

Which “ε (molar absorptivity)” value [2] does the source give for `CCN1C(=O)C(=C2Sc3ccccc3N2C)SC1=Nc1scc[n+]1C` [Compound I-10] here?
The value was 3.55 × 10^4.

What about the “λmax (MeOH)” value [2] of the same compound?
The value was 444 nm.

And the “T/C (%)” value ([5]; 15 mg/kg i.p. on day 1, 2, 3, 6, 8, 10)?
The value was 173%.

And the IC50 [4, 7]?
The IC50 was greater than 20 µg/mL.

What about the IC50 [1] of the same compound?
Its IC50 is 0.08 µg/mL.

And the Selectivity [1]?
Its Selectivity is greater than 250.

With `CCN1C(=O)C(=C2Sc3ccc(OC)cc3N2C)SC1=Nc1sc2ccccc2[n+]1CC` [Compound I-8] as the compound, how does the “ε (molar absorptivity)” value [2] read?
Its value is 4.50 × 10^4.

And the “λmax (MeOH)” value [2]?
Its value is 467 nm.

Which results are given for `CCN1C(=O)C(=CC=C2Sc3ccc4ccccc4c3N2CC)SC1=Nc1scc[n+]1C` [II-7]?
IC50 [3]: 0.15 µg/mL; Selectivity [3]: 200; IC50 [4, 7]: 4 µg/mL; IC50 [1]: 0.03 µg/mL; Selectivity [1]: 133

With `CCN1C(=O)C(=C2Sc3ccc(OC)cc3N2C)SC1=Nc1sc2ccccc2[n+]1CC` [Compound I-5] as the compound, how does the “ε (molar absorptivity)” value [2] read?
The value was 4.45 × 10^4.

And the “λmax (MeOH)” value [2]?
Its value is 460 nm.

With `CC[n+]1c(N=C2SC(=CC=C3Sc4ccccc4N3C)C(=O)N2C)sc2ccccc21` [II-4] as the compound, how does the “ε (molar absorptivity)” value [2] read?
Its value is 7.58 × 10^4.

And the “λmax (MeOH)” value [2]?
Its value is 564 nm.

What about the IC50 [3] of the same compound?
Its IC50 is 0.15 µg/mL.

What about the Selectivity [3] of the same compound?
The Selectivity was 196.

And the IC50 [4, 8]?
Its IC50 is 29.4 µg/mL.

For `CCCN1C(=CC=CC=Cc2oc3ccccc3[n+]2CCC)Oc2ccccc21` [E, reference compound], which Selectivity [1] is on record?
The Selectivity was 12.
